Experimental data from ChEMBL document CHEMBL5154817, “Structure-activity relationship studies on O-alkylamino-tethered salicylamide derivatives with various amino acid linkers as potent anticancer agents” (Eur J Med Chem, 2022).

Key:
[1] = tested on: MDA-MB-231; assay: Antiproliferative activity against human MDA-MB-231 cells assessed as inhibition of cell growth incubated for 72 hrs by MTT assay; format: functional, cell-based; conditions: MDA-MB-231, 72 h
[2] = tested on: MCF7; assay: Antiproliferative activity against human MCF7 cells assessed as inhibition of cell growth incubated for 72 hrs by MTT assay; format: functional, cell-based; conditions: MCF7, 72 h

Compound | IC50 [1] | IC50 [2]
CC(C)[C@H](NC(=O)c1cc(Cl)ccc1OCCNC(=O)OC(C)(C)C)C(=O)Nc1ccc(C(F)(F)F)cc1Cl | > 10 µM | > 10 µM
CC(C)(C)OC(=O)NCCOc1ccc(Cl)cc1C(=O)N[C@@H](Cc1ccccc1)C(=O)Nc1cc(C(F)(F)F)cc(C(F)(F)F)c1 | > 10 µM | > 10 µM
CC(C)(C)OCC(NC(=O)c1cc(Cl)ccc1OCCNC(=O)OC(C)(C)C)C(=O)Nc1ccc([N+](=O)[O-])cc1Cl (single isomer, unassigned) | > 10 µM | > 10 µM
CC(C)[C@H](NC(=O)c1cc(Cl)ccc1OC1CCN(C(=O)OC(C)(C)C)CC1)C(=O)Nc1ccc([N+](=O)[O-])cc1Cl | > 10 µM | > 10 µM
CC(C)C[C@H](NC(=O)c1cc(Cl)ccc1OCCN)C(=O)Nc1ccc([N+](=O)[O-])cc1Cl | > 10 µM | > 10 µM
CC(C)(C)OC(=O)NCCOc1ccc(Cl)cc1C(=O)N[C@@H](CO)C(=O)Nc1ccc([N+](=O)[O-])cc1Cl | > 10 µM | > 10 µM
CC(C)[C@H](NC(=O)c1cc(Cl)ccc1OCCCCNC(=O)OC(C)(C)C)C(=O)Nc1ccc([N+](=O)[O-])cc1Cl | > 10 µM | > 10 µM
COC(=O)NCCOc1ccc(Cl)cc1C(=O)N[C@H](C(=O)Nc1ccc([N+](=O)[O-])cc1Cl)C(C)C | > 10 µM | > 10 µM
C[C@H](NC(=O)c1cc(Cl)ccc1OCCN)C(=O)Nc1ccc([N+](=O)[O-])cc1Cl | > 10 µM | > 10 µM
C[C@H](NC(=O)c1cc(Cl)ccc1OCCNC(=O)OC(C)(C)C)C(=O)Nc1ccc([N+](=O)[O-])cc1Cl | > 10 µM | > 10 µM
CC(C)(C)OC(=O)N1CCC(Oc2ccc(Cl)cc2C(=O)N[C@@H](Cc2ccccc2)C(=O)Nc2cc(C(F)(F)F)cc(C(F)(F)F)c2)CC1 | > 10 µM | > 10 µM
CC(=O)NCCOc1ccc(Cl)cc1C(=O)N[C@H](C(=O)Nc1ccc([N+](=O)[O-])cc1Cl)C(C)C | > 10 µM | > 10 µM
CC(C)[C@H](NC(=O)c1cc(Cl)ccc1OCCN)C(=O)Nc1ccc(F)c(F)c1 | > 10 µM | > 10 µM
CC(C)[C@H](NC(=O)c1cc(Cl)ccc1OCCNC(=O)OCc1ccccc1)C(=O)Nc1ccc([N+](=O)[O-])cc1Cl | > 10 µM | > 10 µM
CC(C)[C@H](NC(=O)c1cc(Cl)ccc1OCCNC(=O)OC(C)(C)C)C(=O)Nc1cc(C(F)(F)F)cc(C(F)(F)F)c1 | > 10 µM | > 10 µM
CC(C)C[C@H](NC(=O)c1cc(Cl)ccc1OCCNC(=O)OC(C)(C)C)C(=O)Nc1ccc([N+](=O)[O-])cc1Cl | > 10 µM | > 10 µM
CC(C)[C@H](NC(=O)c1cc(Cl)ccc1OCCCNC(=O)OC(C)(C)C)C(=O)Nc1ccc([N+](=O)[O-])cc1Cl | > 10 µM | > 10 µM
CC(C)(C)OC(=O)N1CCC(Oc2ccc(Cl)cc2C(=O)N[C@@H](Cc2ccccc2)C(=O)Nc2ccc([N+](=O)[O-])cc2Cl)CC1 | > 10 µM | > 10 µM
CC(C)(C)OC(=O)CC[C@H](NC(=O)c1cc(Cl)ccc1OCCNC(=O)OC(C)(C)C)C(=O)Nc1ccc([N+](=O)[O-])cc1Cl | > 10 µM | > 10 µM
CC(C)[C@H](NC(=O)c1cc(Cl)ccc1OCCN)C(=O)Nc1ccc([N+](=O)[O-])cc1Cl | > 10 µM | > 10 µM
CSCC[C@H](NC(=O)c1cc(Cl)ccc1OCCN)C(=O)Nc1ccc([N+](=O)[O-])cc1Cl | > 10 µM | > 10 µM
CSCC[C@H](NC(=O)c1cc(Cl)ccc1OCCNC(=O)OC(C)(C)C)C(=O)Nc1ccc([N+](=O)[O-])cc1Cl | > 10 µM | > 10 µM
CC(C)(C)OC(=O)NCCOc1ccc(Cl)cc1C(=O)N[C@@H](Cc1ccc(O)cc1)C(=O)Nc1ccc([N+](=O)[O-])cc1Cl | > 10 µM | 8.81 µM
CC(C)(C)OC(=O)NCCOc1ccc(Cl)cc1C(=O)N[C@@H](Cc1ccccc1)C(=O)Nc1ccc([N+](=O)[O-])cc1Cl | > 10 µM | > 10 µM

Now those with a lower IC50 [1], led by results:

IC50 [1] | IC50 [2] | Compound
6.37 µM | 9.44 µM | NCCOc1ccc(Cl)cc1C(=O)NCC(=O)Nc1ccc2c(c1)S(=O)(=O)C=C2
2.08 µM | 1.43 µM | CC(C)(C)OC(=O)NCCOc1ccc(Cl)cc1C(=O)NCC(=O)Nc1ccc2c(c1)S(=O)(=O)C=C2
5.43 µM | 6.01 µM | CC(C)[C@H](NC(=O)c1cc(Cl)ccc1OCCN)C(=O)Nc1cc(C(F)(F)F)cc(C(F)(F)F)c1
5.44 µM | > 10 µM | CC(C)[C@H](NC(=O)c1cc(Cl)ccc1OCCN)C(=O)Nc1ccc(C(F)(F)F)cc1Cl
3.72 µM | > 10 µM | CC(C)[C@H](NC(=O)c1cc(Cl)ccc1OCCNC(=O)OC(C)(C)C)C(=O)Nc1ccc(F)c(F)c1
7.87 µM | 11.5 µM | CC(C)[C@H](NC(=O)c1cc(Cl)ccc1OCCNC(=O)OC(C)(C)C)C(=O)Nc1cc(F)cc(C(F)(F)F)c1
7.97 µM | 6.58 µM | NCCOc1ccc(Cl)cc1C(=O)N[C@@H](Cc1ccccc1)C(=O)Nc1ccc([N+](=O)[O-])cc1Cl
5.34 µM | 4.48 µM | C=C(NC(=O)c1cc(Cl)ccc1OCCNC(=O)OC(C)(C)C)C(=O)Nc1ccc([N+](=O)[O-])cc1Cl
6.18 µM | > 10 µM | CC[C@@H](C)[C@H](NC(=O)c1cc(Cl)ccc1OCCN)C(=O)Nc1ccc([N+](=O)[O-])cc1Cl
4.34 µM | > 10 µM | CC(C)[C@H](NC(=O)c1cc(Cl)ccc1OCCN)C(=O)Nc1cc(F)cc(C(F)(F)F)c1
5.59 µM | > 10 µM | CC(C)[C@H](NC(=O)c1cc(Cl)ccc1OCCCCN)C(=O)Nc1ccc([N+](=O)[O-])cc1Cl
5.02 µM | 4.89 µM | NCCOc1ccc(Cl)cc1C(=O)N[C@H](Cc1ccccc1)C(=O)Nc1ccc([N+](=O)[O-])cc1Cl
3.22 µM | 1.62 µM | CC(C)(C)OCC(NC(=O)c1cc(Cl)ccc1OCCN)C(=O)Nc1ccc([N+](=O)[O-])cc1Cl (single isomer, unassigned)
5.23 µM | > 10 µM | CC(C)[C@H](NC(=O)c1cc(Cl)ccc1OC1CCNCC1)C(=O)Nc1ccc([N+](=O)[O-])cc1Cl
3.24 µM | 4.48 µM | O=C(N[C@@H](Cc1ccccc1)C(=O)Nc1ccc([N+](=O)[O-])cc1Cl)c1cc(Cl)ccc1OC1CCNCC1
5.99 µM | 3.08 µM | CC(C)(C)OC(=O)CC[C@H](NC(=O)c1cc(Cl)ccc1OCCN)C(=O)Nc1ccc([N+](=O)[O-])cc1Cl
4.02 µM | 10.5 µM | CC[C@@H](C)[C@H](NC(=O)c1cc(Cl)ccc1OCCNC(=O)OC(C)(C)C)C(=O)Nc1ccc([N+](=O)[O-])cc1Cl
4.92 µM | 2.95 µM | NCCOc1ccc(Cl)cc1C(=O)N[C@@H](Cc1ccccc1)C(=O)Nc1cc(C(F)(F)F)cc(C(F)(F)F)c1
5.95 µM | 4.35 µM | CC(C)[C@H](NC(=O)c1cc(Cl)ccc1OCCN)C(=O)Nc1ccc2c(c1)S(=O)(=O)C=C2
6.77 µM | > 10 µM | CC(C)[C@H](NC(=O)c1cc(Cl)ccc1OCCCN)C(=O)Nc1ccc([N+](=O)[O-])cc1Cl
4.9 µM | 10.1 µM | CC(C)COC(=O)NCCOc1ccc(Cl)cc1C(=O)N[C@H](C(=O)Nc1ccc([N+](=O)[O-])cc1Cl)C(C)C
1.78 µM | 8.13 µM | O=C(Nc1ccc([N+](=O)[O-])cc1Cl)c1cc(Cl)ccc1O [NICLOSAMIDE]
